What was measured:
MEK1 and MEK2 proteins = assay: Global proteome analysis of HT-29 cells; assay type: cell-based, human
Experimental: […] […] P values were calculated from the data of two technical replicates. (A) DMSO compared to CPD-031 treated samples; (B) CPD-034 compared to CPD-031 treated samples; (C) DMSO compared to CPD-034 treated samples.
Proteins outside the significance lines were labeled with pink or purple color (FDR=0.05, S0=1). P values were calculated from the data of two technical replicates.
Protein Extraction and Digestion. Cells with indicated treatments were harvested and lysed in lysis buffer (6 M guanidine hydrochloride, 100 mM Tris-HCl pH 8.0). Sonication (5 s on, 5 s off, 2×30 s) was performed to shear genome DNA. Lysate were centrifugated for 30 min at 3,500 g at 4° C. and the supernatant were transferred to a clean tube, diluted 50% with Milli-Q H2O, then precipitated by addition of cold acetone (four times the original volume), and placed at −20° C. overnight. Precipitated proteins were brought down at 20,000 g at 4° C. for 10 min, and washed with cold acetone after discarding the supernatant. The pellet was air-dried at RT for 5 min and solubilized with 50 mM Tris-HCl (PH 8.0), 8 M urea. Protein concentration was determined (BCA assay) and protein was reduced with 5 mM DTT (dithiothreitol), alkylated with 15 mM IAA (iodoacetamide) in the dark, then diluted with buffer 25 mM Tris (pH 8.0) and 1 mM CaCl2 (three times the original volume). The final urea concentration is 2 M. Trypsin was added into protein solution with 1:100 ratio (trypsin:protein), and digested 12-16 h or overnight at RT.
Mass Spectrometry Analysis. Peptides were cleaned up by C18 stage tips and the concentration was determined (Peptide assay, 23275, Thermo Fisher Scientific). The clean peptides were dissolved in 0.1% formic acid and analyzed on a Q-Exactive HF-X coupled with an Easy nanoLC 1200 (Thermo Fisher Scientific, San Jose, CA). 0.5 μg of peptides were loaded onto an Acclain PepMap RSLC C18 Column (250 mm×75 μm ID, C18, 2 μm, Thermo Fisher Scientific). […] A linear gradient of 5 to 30% buffer B over 110 min was executed at a 300 nl/min flow rate followed a ramp to 100% B in 5 min, and 15-min wash with 100% B, where buffer A was aqueous 0.1% formic acid, and buffer B was 80% acetonitrile and 0.1% formic acid.
LC-MS experiments were performed in a data-dependent mode with full MS (externally calibrated to a mass accuracy of <5 ppm and a resolution of 60,000 at m/z 200) followed by high energy collision-activated dissociation-MS/MS of the top 20 most intense ions with a resolution of 15,000 at m/z 200. High energy collision-activated dissociation-MS/MS was used to dissociate peptides at a normalized collision energy of 27 eV in the presence of nitrogen bath gas atoms. Dynamic exclusion was 30.0 seconds. Each sample was subjected to two technical LC-MS replicates.
MS Data Analysis. Mass spectra processing and peptide identification were performed on the Andromeda search engine in MaxQuant software (Version 1.6.0.16) against the human UniProt database (UP000005640). All searches were conducted with a defined modification of cysteine carbamidomethylation, with methionine oxidation and protein amino-terminal acetylation as dynamic modifications. Peptides were confidently identified using a target-decoy approach with a peptide false discovery rate (FDR) of 1% and a protein FDR of 1%. A minimum peptide length of 7 amino acids was required, maximally two missed cleavages were allowed, initial mass deviation for precursor ion was up to 7 ppm, and the maximum allowed mass deviation for fragment ions was 0.5 Da. Data processing and statistical analysis were performed on Perseus (Version 1.6.0.7). Protein quantitation was performed on duplicate runs, and a two-sample t-test statistics was used to report statistically significant expression fold-changes.

MEK1/2 [1] = assay: Western blot of MEK1/2 protein levels in HT-29 cells; assay type: cell-based
Experimental: Compound concentrations are 0.3 μM, 1 μM and 3 μM.
(§3) The indicated protein levels were determined by Western blots.
(§4) The sample was centrifuged at 12,000 g for 10 min at 4° C. to get supernatant as cell lysate. Protein concentrations were quantified using Pierce rapid gold BCA protein assay kit.

MEK1 = target: T1, MEK1 (Homo sapiens, UniProt Q02750); assay: HotSpot kinase inhibition assay, MEK1; assay type: biochemical; conditions: MEK1 100 nM, ERK K52R substrate, 33P-ATP, normalized with DMSO
T1 construct: purchased Thermo Fisher Scientific PV3303

MEK2 = target: T2, MEK2 (Homo sapiens, UniProt P36507); assay: HotSpot kinase inhibition assay, MEK2; assay type: biochemical; conditions: MEK2 150 nM, ERK K52R substrate, 33P-ATP, normalized with DMSO
T2 construct: purchased Thermo Fisher Scientific PV3615

pMEK and pERK [2] = assay: Western blot of MEK and ERK phosphorylation in HT-29 cells; assay type: cell-based; conditions: HT-29 cells
pMEK and pERK [3] = assay: Western blot of MEK and ERK phosphorylation in SK-MEL-28 cells; conditions: SK-MEL-28 cells
MEK1/2 [4] = assay: Western blot of MEK1/2 protein levels in SK-MEL-28 cells; conditions: SK-MEL-28 cells
Experimental: as §3, §4

HT-29 cells [5] = assay: WST-8 cell viability assay, HT-29; assay type: cell-based; conditions: WST-8 3 d serial dilutions, clonogenic assay 10 d
Experimental: (§1) Cells were fixed and stained by crystal violet.
(§2) Cells (2000 cells per well) were seeded into 96-well microplates. After 20 h, cells were treated with 0.1% DMSO or indicated serial dilutions of compounds in duplicate or triplicate for 3 days. Cell viability was tested using MTT (M6494, Thermo Fisher Scientific) or WST-8 reagent (CK04, Dojindo). Briefly, 12 mM MTT was prepared in PBS or WST-8 reagent was warmed up to room temperature. 20 μL MTT or CCK-8 was then added to each well and the plates were kept in incubator at 37° C. for 3 h in the dark. For the WST-8 assay, signal was obtained after the incubation. For the MTT assay, cell medium was replaced with 200 μL of DMSO after the incubation, and then cell plates were kept at 37° C. for another 30 min. Absorbance signals for MTT and WST-8 were read at 540 nm and 450 nm respectively, with 690 nm as reference performed with Infinite F PLEX plate reader (TECAN, Morrisville, NC, USA). GI50 values were analyzed using GraphPad Prism 8 from the data of at least three independent experiments.

SK-MEL-28 cells = assay: WST-8 cell viability assay, SK-MEL-28; assay type: cell-based; conditions: WST-8 3 d serial dilutions
Experimental: as §1, §2

HT-29 cells [6] = assay: MTT cell viability assay, HT-29; assay type: cell-based; conditions: Homo sapiens, 72 h, MTT assay, 3 d treatment, serial dilutions
Experimental: MTT assay was conducted for HT-29 cells after 3 d treatment with indicated compounds with serial dilutions.
MTT assay was conducted for HT-29 (A) and SK-MEL-28 (B) cells after 3 d treatment with DMSO or indicated compounds with serial dilutions. Clonogenic assay was performed in HT-29 (C) and SK-MEL-28 (D) cells for 14 d treatment with DMSO or indicated compounds with 10, 30 and 100 nM, in duplicate, respectively. Cells were then stained by crystal violet.
HT-29 or SK-MEL-28 cells (300 cells per well) were seeded in 12-well plates. After 20 h, cells were treated with DMSO or indicated concentrations of compounds in duplicate for two weeks. Medium containing indicated compounds was changed every 3 days. Cells were then fixed and stained with the solution containing 6% (v/v) glutaraldehyde (G5882, Sigma-Aldrich) and 0.5% (w/v) crystal violet for 1 h. To remove the background color, the plates with stained cells were immersed in running water until clear colonies were observed. The plates were dried at RT. The staining images were obtained with Epson Perfection V600 Photo.

[7] = 0.1 μM or 0.3 μM, harvested at indicated time points
[8] = serial dilution, 24 h, western blot
[9] = 8 h, 0.1 μM CPD-038 or CPD-052, 0.3 μM CPD-051 or CPD-097, versus 0.1% DMSO
[10] = HT-29 cells, 24 h, 0.3 μM, 1 μM and 3 μM, western blot normalized with α-tubulin

T1 sequence (Q02750 whole entry): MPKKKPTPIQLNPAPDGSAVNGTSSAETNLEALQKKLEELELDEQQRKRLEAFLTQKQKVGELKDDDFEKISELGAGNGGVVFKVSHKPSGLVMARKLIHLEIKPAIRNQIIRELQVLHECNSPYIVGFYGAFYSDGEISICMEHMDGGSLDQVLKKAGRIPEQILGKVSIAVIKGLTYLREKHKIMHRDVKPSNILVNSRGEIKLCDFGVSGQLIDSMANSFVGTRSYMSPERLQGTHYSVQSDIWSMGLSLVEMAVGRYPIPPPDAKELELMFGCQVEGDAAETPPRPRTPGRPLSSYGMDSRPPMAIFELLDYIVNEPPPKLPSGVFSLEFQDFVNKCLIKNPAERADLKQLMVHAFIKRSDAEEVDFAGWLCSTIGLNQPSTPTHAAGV
T2 sequence (P36507 whole entry): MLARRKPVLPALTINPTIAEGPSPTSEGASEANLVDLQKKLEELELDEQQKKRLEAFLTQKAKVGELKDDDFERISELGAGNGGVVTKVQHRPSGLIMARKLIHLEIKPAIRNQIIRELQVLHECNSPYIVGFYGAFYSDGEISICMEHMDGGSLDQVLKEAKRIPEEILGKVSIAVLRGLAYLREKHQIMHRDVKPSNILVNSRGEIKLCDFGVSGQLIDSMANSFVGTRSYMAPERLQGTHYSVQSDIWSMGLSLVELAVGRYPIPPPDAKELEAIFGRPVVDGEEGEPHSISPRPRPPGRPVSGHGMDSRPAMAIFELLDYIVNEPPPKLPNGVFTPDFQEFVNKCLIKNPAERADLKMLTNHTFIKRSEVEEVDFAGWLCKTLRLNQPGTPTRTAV

Compound	protein levels in the global proteomic study (MEK1 and MEK2 proteins; [9])	MEK1 and MEK2 protein levels (MEK1/2 [1]; [10])	growth of cells (HT-29 cells [5])	growth of cells (SK-MEL-28 cells)	GI50 (HT-29 cells [6])	further results
Cc1ncsc1-c1ccc([C@H](C)NC(=O)C2CC(O)CN2C(=O)[C@@H](NC(=O)CCCCCCCCCCNCCCONC(=O)c2ccc(F)c(F)c2Nc2ccc(I)cc2F)C(C)(C)C)cc1 (stereo in doubt) [CPD-034, (2R,4S)-1-((S)-20-(tert-butyl)-1-(3,4-difluoro-2-((2-fluoro-4-iodophenyl)amino)phenyl)-1,18-dioxo-3-oxa-2,7,19-triazahenicosan-21-oyl)-4-hydroxy-N—((S)-1-(4-(4-methylthiazol-5-yl)phenyl)ethyl)pyrrolidine-2-carboxamide]						protein levels in the global proteomic study (MEK1 and MEK2 proteins; 10 h, 0.1 μM, versus 0.1% DMSO): did not significantly modulate; MEK1 and MEK2 protein levels (MEK1/2 [1]; HT-29 cells, 0.1, 0.3, or 1 μM, 24 h): not; MEK1 kinase activity (MEK1): inhibited; MEK2 kinase activity (MEK2): inhibited
O=C1CCC(N2C(=O)c3ccc(NCCOCCOCCOCCOCCOCCNCCCONC(=O)c4ccc(F)c(F)c4Nc4ccc(I)cc4F)cc3C2=O)C(=O)N1 (centres unmarked) [CPD-051, N-((1-((2-(2,6-dioxopiperidin-3-yl)-1,3-dioxoisoindolin-5-yl)amino)-3,6,9,12,15-pentaoxa-18-azahenicosan-21-yl)oxy)-3,4-difluoro-2-((2-fluoro-4-iodophenyl)amino)benzamide]	selectively degraded	significantly degraded	significantly suppressed	significantly suppressed		phosphorylation of MEK and ERK / pERK signaling, time-dependent (pMEK and pERK [2]; [7]): inhibit; phosphorylation of MEK and ERK proteins, concentration-dependent (pMEK and pERK [2]; [8]): inhibited; phosphorylation of MEK and ERK / pERK signaling, time-dependent (pMEK and pERK [3]; [7]): inhibit; phosphorylation of MEK and ERK proteins, concentration-dependent (pMEK and pERK [3]; [8]): inhibited; MEK1 and MEK2 protein levels, time-dependent (MEK1/2 [4]; [7]): degrade; MEK1 and MEK2 protein levels, concentration-dependent (MEK1/2 [4]; [8]): concentration-dependently reduced; MEK1 and MEK2 protein levels, time-dependent (MEK1/2 [1]; HT-29 cells, 0.1 μM or 0.3 μM, harvested at indicated time points): degrade; MEK1 and MEK2 protein levels, concentration-dependent (MEK1/2 [1]; HT-29 cells, serial dilution, 24 h, western blot): concentration-dependently reduced
Cc1ncsc1-c1ccc([C@H](C)NC(=O)[C@H]2C[C@H](O)CN2C(=O)[C@@H](NC(=O)CCCCCCCCCCN(C)CCCONC(=O)c2ccc(F)c(F)c2Nc2ccc(I)cc2F)C(C)(C)C)cc1 [CPD-053, (2R,4S)-1-((S)-20-(tert-butyl)-1-(3,4-difluoro-2-((2-fluoro-4-iodophenyl)amino)phenyl)-7-methyl-1,18-dioxo-3-oxa-2,7,19-triazahenicosan-21-oyl)-4-hydroxy-N-((S)-1-(4-(4-methylthiazol-5-yl)phenyl)ethyl)pyrrolidine-2-carboxamide]			did not significantly suppress	did not significantly suppress		
Cc1ncsc1-c1ccc([C@H](C)NC(=O)[C@H]2C[C@H](O)CN2C(=O)[C@@H](NC(=O)CCCCCCCCCCCNCCCCONC(=O)c2ccc(F)c(F)c2Nc2ccc(I)cc2F)C(C)(C)C)cc1 [CPD-052, (2R,4S)-1-((S)-22-(tert-butyl)-1-(3,4-difluoro-2-((2-fluoro-4-iodophenyl)amino)phenyl)-1,20-dioxo-3-oxa-2,8,21-triazatricosan-23-oyl)-4-hydroxy-N-((S)-1-(4-(4-methylthiazol-5-yl)phenyl)ethyl)pyrrolidine-2-carboxamide]	did not significantly modulate		did not significantly suppress	did not significantly suppress		
CN1C(=O)CCC(N2C(=O)c3ccc(NCCOCCOCCOCCOCCOCCNCCCONC(=O)c4ccc(F)c(F)c4Nc4ccc(I)cc4F)cc3C2=O)C1=O (centres unmarked) [CPD-097, 3,4-difluoro-2-((2-fluoro-4-iodophenyl)amino)-N-((1-((2-(1-methyl-2,6-dioxopiperidin-3-yl)-1,3-dioxoisoindolin-5-yl)amino)-3,6,9,12,15-pentaoxa-18-azahenicosan-21-yl)oxy)benzamide]	did not significantly modulate		did not significantly suppress	did not significantly suppress		
O=C1CCC(N2C(=O)c3cccc(NCCNCCCONC(=O)c4ccc(F)c(F)c4Nc4ccc(I)cc4F)c3C2=O)C(=O)N1 (centres unmarked) [CPD-024, N-(3-((2-((2-(2,6-dioxopiperidin-3-yl)-1,3-dioxoisoindolin-4-yl)amino)ethyl)amino)propoxy)-3,4-difluoro-2-((2-fluoro-4-iodophenyl)amino)benzamide]		not			0.4 ± 0.01 µM	
Cc1ncsc1-c1ccc(CNC(=O)[C@@H]2C[C@@H](O)CN2C(=O)[C@@H](NC(=O)CCCCCCNCCCONC(=O)c2ccc(F)c(F)c2Nc2ccc(I)cc2F)C(C)(C)C)cc1 [CPD-001, (2S,4R)-1-((S)-16-(tert-Butyl)-1-(3,4-difluoro-2-((2-fluoro-4-iodophenyl)amino)phenyl)-1,14-dioxo-3-oxa-2,7,15-triazaheptadecan-17-oyl)-4-hydroxy-N-(4-(4-methylthiazol-5-yl)benzyl)pyrrolidine-2-carboxamide]		reduced			1.4 ± 0.2 µM	
O=C1CCC(N2C(=O)c3cccc(NCCOCCNCCCONC(=O)c4ccc(F)c(F)c4Nc4ccc(I)cc4F)c3C2=O)C(=O)N1 (centres unmarked) [CPD-019, N-(3-((2-(2-((2-(2,6-dioxopiperidin-3-yl)-1,3-dioxoisoindolin-4-yl)amino)ethoxy)ethyl)amino)propoxy)-3,4-difluoro-2-((2-fluoro-4-iodophenyl)amino)benzamide]		not			1.2 ± 0.2 µM	
O=C1CCC(N2C(=O)c3ccc(NCCCCCCCCNCCCONC(=O)c4ccc(F)c(F)c4Nc4ccc(I)cc4F)cc3C2=O)C(=O)N1 (centres unmarked) [CPD-046, N-(3-((8-((2-(2,6-dioxopiperidin-3-yl)-1,3-dioxoisoindolin-5-yl)amino)octyl)amino)propoxy)-3,4-difluoro-2-((2-fluoro-4-iodophenyl)amino)benzamide]		significantly degraded			0.3 ± 0.1 µM	
